The results in this text go back to ChEMBL document CHEMBL5634099, “Pyrrole-thiazolidinone hybrids as a new structural class of broad-spectrum anti-infectives” (Eur J Med Chem, 2023).

Holding throughout (assay type): functional
For one assay, the system named is Escherichia coli. The assay is described as follows: Antibacterial activity against Escherichia coli ATCC 25922 assessed as bacterial growth inhibition incubated for 16 to 18 hrs by CLSI based susceptibility testing method. The following applies: time 16-18 hrs.
The next assay deals with Staphylococcus aureus. Briefly: Antibacterial activity against Staphylococcus aureus ATCC 29213 assessed as bacterial growth inhibition incubated for 16 to 18 hrs by CLSI based susceptibility testing method. The following applies: time 16-18 hrs.
A further assay deals with Klebsiella pneumoniae. The assay is described as follows: Antibacterial activity against Klebsiella pneumoniae BAA 1705 assessed as bacterial growth inhibition incubated for 16 to 18 hrs by CLSI based susceptibility testing method. The following applies: time 16-18 hrs.
In another assay the test system is Acinetobacter baumannii. Briefly: Antibacterial activity against Acinetobacter baumannii BAA 1605 assessed as bacterial growth inhibition incubated for 16 to 18 hrs by CLSI based susceptibility testing method. The following applies: time 16-18 hrs.
Another assay has as its system Pseudomonas aeruginosa. Briefly: Antibacterial activity against Pseudomonas aeruginosa ATCC 27853 assessed as bacterial growth inhibition incubated for 16 to 18 hrs by CLSI based susceptibility testing method. As to conditions: time 16-18 hrs.
Assay [1] has as its system Mycobacterium tuberculosis. The assay is described as follows: Antimycobacterial activity against Mycobacterium tuberculosis H37Rv ATCC 27294 assessed as bacterial growth inhibition incubated for 7 days by resazurin dye based assay. As to conditions: H37Rv ATCC 27294, 168 h, time 7 day. A general note: Alamar Blue is a resazurin reagent that responds to reducing activity.

Assay [2] relates to Mycobacteroides abscessus. Briefly: Antimycobacterial activity against Mycobacterium abscessus ATCC 19977 assessed as bacterial growth inhibition incubated for 7 days by resazurin dye based assay. The following applies: ATCC 19977, 168 h, time 7 day.
Assay [3] relates to Mycolicibacterium fortuitum. Briefly: Antimycobacterial activity against Mycobacterium fortuitum ATCC 6841 assessed as bacterial growth inhibition incubated for 7 days by resazurin dye based assay. The following applies: ATCC 6841, 168 h, time 7 day.
In the next assay the test system is Mycobacteroides chelonae. Briefly: Antimycobacterial activity against Mycobacteroides chelonae ATCC 35752 assessed as bacterial growth inhibition incubated for 7 days by resazurin dye based assay. As to conditions: ATCC 35752, 168 h, time 7 day.

Molecules are shown by their SMILES. In brackets after ≈: the same amount, converted by molar mass. Some results are limits rather than exact numbers.

Regarding `Cc1cc(/C=C2\S/C(=N/c3nccs3)NC2=O)c(C)n1-c1ccc(Cl)cc1`, the MIC (commonly the least concentration at which growth counts as inhibited) in the assay with Escherichia coli is over 64 µg/mL; with Staphylococcus aureus, 4 µg/mL (≈ 9.64 µM); with Klebsiella pneumoniae, over 64 µg/mL; in the assay with Acinetobacter baumannii, over 64 µg/mL; with Pseudomonas aeruginosa it was over 64 µg/mL; in assay [1], 8 µg/mL (≈ 19.3 µM). For the same compound, the MIC (in assay [2]; in assay [3]; with Mycobacteroides chelonae) was over 64 µg/mL each time.
For the compound `Cc1cc(/C=C2\S/C(=N/c3nccs3)NC2=O)c(C)n1-c1cccc(Cl)c1`, the MIC in the assay on Escherichia coli was over 64 µg/mL; in the assay with Staphylococcus aureus it was 8 µg/mL (≈ 19.3 µM); in the assay on Klebsiella pneumoniae it was over 64 µg/mL; with Acinetobacter baumannii it was over 64 µg/mL; in the assay with Pseudomonas aeruginosa, over 64 µg/mL; in [1], over 64 µg/mL. The MIC (in [2]; in assay [3]; in the assay on Mycobacteroides chelonae) was over 64 µg/mL throughout.
`Cc1ccc(-n2c(C)cc(/C=C3\S/C(=N/c4nccs4)NC3=O)c2C)cc1`: the MIC with Escherichia coli is over 64 µg/mL; in the assay on Staphylococcus aureus, 4 µg/mL (≈ 10.1 µM); with Klebsiella pneumoniae, over 64 µg/mL; in the assay with Acinetobacter baumannii, over 64 µg/mL; with Pseudomonas aeruginosa, over 64 µg/mL; in [1], 8 µg/mL (≈ 20.3 µM). Further, the MIC (in assay [2]; in assay [3]; in the assay on Mycobacteroides chelonae) was over 64 µg/mL in each case.
As for `Cc1cc(/C=C2\S/C(=N/c3nccs3)NC2=O)c(C)n1-c1ccc(C#N)c(Cl)c1`, the MIC was over 64 µg/mL in the assay on Escherichia coli; over 64 µg/mL with Staphylococcus aureus; over 64 µg/mL with Klebsiella pneumoniae; over 64 µg/mL with Acinetobacter baumannii; over 64 µg/mL in the assay with Pseudomonas aeruginosa; 16 µg/mL (≈ 36.4 µM) in assay [1]. Besides, the MIC (in [2]; in assay [3]; with Mycobacteroides chelonae) was over 64 µg/mL throughout.
Turning to `COc1ccc(-n2c(C)cc(/C=C3\S/C(=N/c4nc(C)c(C)s4)NC3=O)c2C)cc1`, the MIC (in the assay with Escherichia coli; with Staphylococcus aureus; with Klebsiella pneumoniae; with Acinetobacter baumannii; in the assay on Pseudomonas aeruginosa; in assay [1]) was over 64 µg/mL throughout. For the same compound, the MIC (in [2]; in [3]; with Mycobacteroides chelonae) was over 64 µg/mL in each case.
As for `COc1ccc(-n2c(C)cc(/C=C3\S/C(=N/c4nccs4)NC3=O)c2C)cc1`, the MIC was over 64 µg/mL in the assay with Escherichia coli; 2 µg/mL (≈ 4.87 µM) in the assay with Staphylococcus aureus; over 64 µg/mL in the assay on Klebsiella pneumoniae; over 64 µg/mL with Acinetobacter baumannii; over 64 µg/mL in the assay with Pseudomonas aeruginosa; 64 µg/mL (≈ 156 µM) in [1]. For the same compound, the MIC (in [2]; in assay [3]; in the assay with Mycobacteroides chelonae) was over 64 µg/mL throughout.
Regarding `Cc1cc(/C=C2\S/C(=N/c3nccs3)NC2=O)c(C)n1-c1ccccc1Cl`, the MIC in the assay on Escherichia coli is over 64 µg/mL; in the assay on Staphylococcus aureus, 4 µg/mL (≈ 9.64 µM); in the assay on Klebsiella pneumoniae it was over 64 µg/mL; in the assay on Acinetobacter baumannii it was over 64 µg/mL; with Pseudomonas aeruginosa, over 64 µg/mL; in [1], 16 µg/mL (≈ 38.6 µM). For the same compound, the MIC (in assay [2]; in assay [3]; in the assay with Mycobacteroides chelonae) was over 64 µg/mL in each case.
For `Cc1cc(/C=C2\S/C(=N/c3nccs3)NC2=O)c(C)n1-c1ccccc1`, the MIC is over 64 µg/mL in the assay on Escherichia coli; 2 µg/mL (≈ 5.26 µM) with Staphylococcus aureus; over 64 µg/mL in the assay on Klebsiella pneumoniae; over 64 µg/mL in the assay with Acinetobacter baumannii; over 64 µg/mL in the assay on Pseudomonas aeruginosa; 8 µg/mL (≈ 21 µM) in assay [1]. The MIC (in assay [2]; in [3]; with Mycobacteroides chelonae) was over 64 µg/mL throughout.
Turning to `Cc1cc(/C=C2\S/C(=N/c3nccs3)NC2=O)c(C)n1-c1ccc(F)cc1`, the MIC was over 64 µg/mL with Escherichia coli; over 64 µg/mL with Staphylococcus aureus; over 64 µg/mL with Klebsiella pneumoniae; over 64 µg/mL with Acinetobacter baumannii; over 64 µg/mL in the assay with Pseudomonas aeruginosa; 4 µg/mL (≈ 10 µM) in assay [1]. Further, the minimum inhibitory concentration (MIC) (in assay [2]; in [3]; in the assay on Mycobacteroides chelonae) was over 64 µg/mL each time.
In the case of `COc1ccc(-n2c(C)cc(/C=C3\S/C(=N/c4nccs4)NC3=O)c2C)cc1OC`, the minimum inhibitory concentration (MIC) with Escherichia coli was over 64 µg/mL; in the assay with Staphylococcus aureus, 4 µg/mL (≈ 9.08 µM); with Klebsiella pneumoniae it was over 64 µg/mL; in the assay with Acinetobacter baumannii it was over 64 µg/mL; with Pseudomonas aeruginosa it was over 64 µg/mL; in assay [1], 8 µg/mL (≈ 18.2 µM). The minimum inhibitory concentration (MIC) (in [2]; in [3]; in the assay with Mycobacteroides chelonae) was over 64 µg/mL in each case.
Take `Cc1cc(/C=C2\S/C(=N/c3nccs3)NC2=O)c(C)n1-c1cc(Cl)ccc1O`: the minimal inhibitory concentration (MIC) in the assay with Escherichia coli was over 64 µg/mL; in the assay with Staphylococcus aureus it was 1 µg/mL (≈ 2.32 µM); with Klebsiella pneumoniae it was over 64 µg/mL; with Acinetobacter baumannii, over 64 µg/mL; in the assay with Pseudomonas aeruginosa it was over 64 µg/mL; in [1], 32 µg/mL (≈ 74.3 µM). In addition, the MIC (in [2]; in assay [3]; with Mycobacteroides chelonae) was over 64 µg/mL throughout.
Turning to `Cc1cc(/C=C2\S/C(=N/c3nccs3)NC2=O)c(C)n1-c1ccccc1Br`, the minimal inhibitory concentration (MIC) in the assay on Escherichia coli was over 64 µg/mL; with Staphylococcus aureus, 4 µg/mL (≈ 8.71 µM); in the assay with Klebsiella pneumoniae it was over 64 µg/mL; in the assay on Acinetobacter baumannii, over 64 µg/mL; in the assay on Pseudomonas aeruginosa, over 64 µg/mL; in [1], 8 µg/mL (≈ 17.4 µM). In addition, the MIC (in [2]; in [3]; in the assay on Mycobacteroides chelonae) was over 64 µg/mL in each case.
Consider `COc1cccc(-n2c(C)cc(/C=C3\S/C(=N/c4nc(C)c(C)s4)NC3=O)c2C)c1`, for which the minimum inhibitory concentration (MIC) in the assay on Escherichia coli was over 64 µg/mL; in the assay with Staphylococcus aureus, over 64 µg/mL; with Klebsiella pneumoniae, over 64 µg/mL; with Acinetobacter baumannii it was over 64 µg/mL; in the assay on Pseudomonas aeruginosa it was over 64 µg/mL; in assay [1], 2 µg/mL (≈ 4.56 µM). In addition, the MIC (in [2]; in [3]; in the assay with Mycobacteroides chelonae) was over 64 µg/mL each time.
In the case of `Cc1cc(/C=C2\S/C(=N/c3nccs3)NC2=O)c(C)n1-c1ccc([N+](=O)[O-])cc1`, the MIC (with Escherichia coli; in the assay on Staphylococcus aureus; with Klebsiella pneumoniae; with Acinetobacter baumannii; in the assay with Pseudomonas aeruginosa; in assay [1]) was over 64 µg/mL each time. Also, the minimum inhibitory concentration (MIC) (in assay [2]; in assay [3]; with Mycobacteroides chelonae) was over 64 µg/mL each time.
Turning to `Cc1cc(/C=C2\S/C(=N/c3nccs3)NC2=O)c(C)n1-c1cccc(F)c1`, the MIC with Escherichia coli was over 64 µg/mL; in the assay on Staphylococcus aureus, 1 µg/mL (≈ 2.51 µM); with Klebsiella pneumoniae, over 64 µg/mL; in the assay on Acinetobacter baumannii it was over 64 µg/mL; with Pseudomonas aeruginosa, over 64 µg/mL; in assay [1], 8 µg/mL (≈ 20.1 µM). Moreover, the minimal inhibitory concentration (MIC) (in assay [2]; in assay [3]; in the assay on Mycobacteroides chelonae) was over 64 µg/mL each time.
In the case of `COc1cccc(-n2c(C)cc(/C=C3\S/C(=N/c4nccs4)NC3=O)c2C)c1`, the MIC in the assay on Escherichia coli is over 64 µg/mL; in the assay on Staphylococcus aureus, 64 µg/mL (≈ 156 µM); in the assay on Klebsiella pneumoniae, over 64 µg/mL; in the assay on Acinetobacter baumannii it was over 64 µg/mL; in the assay with Pseudomonas aeruginosa, over 64 µg/mL; in assay [1], over 64 µg/mL. The MIC (in assay [2]; in assay [3]; with Mycobacteroides chelonae) was over 64 µg/mL in each case.
Consider `COc1ccccc1-n1c(C)cc(/C=C2\S/C(=N/c3nc(C)c(C)s3)NC2=O)c1C`, for which the minimal inhibitory concentration (MIC) (with Escherichia coli; with Staphylococcus aureus; in the assay with Klebsiella pneumoniae; in the assay on Acinetobacter baumannii; in the assay on Pseudomonas aeruginosa; in [1]) was over 64 µg/mL in each case. For the same compound, the minimal inhibitory concentration (MIC) (in assay [2]; in assay [3]; in the assay with Mycobacteroides chelonae) was over 64 µg/mL throughout.
Regarding `Cc1nc(/N=C2\NC(=O)/C(=C/c3cc(C)n(-c4ccc(C#N)c(Cl)c4)c3C)S2)sc1C`, the minimal inhibitory concentration (MIC) (with Escherichia coli; with Staphylococcus aureus; in the assay with Klebsiella pneumoniae; in the assay on Acinetobacter baumannii; in the assay on Pseudomonas aeruginosa; in assay [1]) was over 64 µg/mL each time. Besides, the MIC (in assay [2]; in assay [3]; in the assay on Mycobacteroides chelonae) was over 64 µg/mL each time.
On to `Cc1cc(/C=C2\S/C(=N/c3nccs3)NC2=O)c(C)n1-c1ccc(N2CCOCC2)cc1`, for which the MIC in the assay with Escherichia coli is over 64 µg/mL; in the assay with Staphylococcus aureus it was 16 µg/mL (≈ 34.4 µM); in the assay on Klebsiella pneumoniae, over 64 µg/mL; with Acinetobacter baumannii it was over 64 µg/mL; in the assay with Pseudomonas aeruginosa, over 64 µg/mL; in [1] it was 4 µg/mL (≈ 8.59 µM). The minimal inhibitory concentration (MIC) (in assay [2]; in [3]; with Mycobacteroides chelonae) was over 64 µg/mL each time.
Turning to `Cc1cc(/C=C2\S/C(=N/c3nccs3)NC2=O)c(C)n1-c1ccccc1O`, the MIC with Escherichia coli is over 64 µg/mL; with Staphylococcus aureus, 1 µg/mL (≈ 2.52 µM); in the assay on Klebsiella pneumoniae it was over 64 µg/mL; in the assay with Acinetobacter baumannii, over 64 µg/mL; with Pseudomonas aeruginosa, over 64 µg/mL; in [1], 16 µg/mL (≈ 40.4 µM). In addition, the MIC (in assay [2]; in assay [3]; in the assay with Mycobacteroides chelonae) was over 64 µg/mL throughout.
Turning to `Cc1cc(/C=C2\S/C(=N/c3nccs3)NC2=O)c(C)n1-c1ccc([N+](=O)[O-])c(C(F)(F)F)c1`, the minimal inhibitory concentration (MIC) (with Escherichia coli; in the assay with Staphylococcus aureus; in the assay on Klebsiella pneumoniae; in the assay with Acinetobacter baumannii; in the assay with Pseudomonas aeruginosa; in assay [1]) was over 64 µg/mL each time. Also, the minimum inhibitory concentration (MIC) (in assay [2]; in assay [3]; with Mycobacteroides chelonae) was over 64 µg/mL in each case.
For the compound `Cc1nc(/N=C2\NC(=O)/C(=C/c3cc(C)n(-c4ccccc4)c3C)S2)sc1C`, the MIC (in the assay on Escherichia coli; in the assay on Staphylococcus aureus; in the assay with Klebsiella pneumoniae; in the assay on Acinetobacter baumannii; with Pseudomonas aeruginosa; in assay [1]) was over 64 µg/mL in each case. For the same compound, the MIC (in assay [2]; in assay [3]; in the assay with Mycobacteroides chelonae) was over 64 µg/mL each time.
